Calls of active or inactive are those of the source.
Experiments:
[1] = target: T1, Heat shock factor protein 1 (Mus musculus, UniProt P38532); test: inhibition of MG132-induced HSE-luciferase signal, confirmation, cell-based, NIH3T3, luminescence, dose retest (AID 2382); assay type: functional;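 note: NIH3T3 fibroblasts with HSF1-driven luciferase reporter stressed by proteasome inhibitor MG132; luminescence from HSF1-driven luciferase expression after 8 hours of MG132 stress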
T1 sequence (P38532 whole entry): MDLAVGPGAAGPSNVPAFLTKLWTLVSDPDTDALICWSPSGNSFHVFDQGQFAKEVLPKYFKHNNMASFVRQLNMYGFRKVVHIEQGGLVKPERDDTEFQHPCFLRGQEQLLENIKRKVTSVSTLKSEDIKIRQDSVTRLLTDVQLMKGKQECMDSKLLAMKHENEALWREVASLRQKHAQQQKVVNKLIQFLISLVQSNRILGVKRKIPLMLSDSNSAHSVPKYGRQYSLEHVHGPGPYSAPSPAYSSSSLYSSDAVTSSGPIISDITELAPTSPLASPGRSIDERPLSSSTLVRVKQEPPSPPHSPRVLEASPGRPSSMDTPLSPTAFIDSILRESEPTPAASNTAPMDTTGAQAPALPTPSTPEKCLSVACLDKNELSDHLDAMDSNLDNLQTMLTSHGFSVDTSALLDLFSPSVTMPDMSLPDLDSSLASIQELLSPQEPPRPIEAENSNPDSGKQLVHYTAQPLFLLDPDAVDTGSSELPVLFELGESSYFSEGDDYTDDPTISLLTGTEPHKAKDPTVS

INS1 = test: beta cell apoptosis inhibitors, cytokine rescue, dose response, luminescence, retest (AID 449756); assay type: functional, cell-based; conditions: Rattus norvegicus;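 note: cell death triggered by IL-1 beta plus TNF-alpha plus IFN-gamma mixture; protective hits raise ATP signal compared with cytokine alone wells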
Nonstructural protein 1 = Nonstructural protein 1 (Influenza A virus, UniProt Q194T2); assay type: functional, Influenza A virus (A/California/07/2009(H1N1))
Chain of Nonstructural protein 1 (Q194T2 whole entry): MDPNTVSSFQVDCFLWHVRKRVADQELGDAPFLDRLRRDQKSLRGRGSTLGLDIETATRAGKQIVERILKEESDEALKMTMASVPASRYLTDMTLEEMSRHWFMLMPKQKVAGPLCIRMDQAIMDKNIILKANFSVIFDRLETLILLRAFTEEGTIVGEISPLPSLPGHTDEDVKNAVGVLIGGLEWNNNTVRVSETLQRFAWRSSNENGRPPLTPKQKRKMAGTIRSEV

[2] = inhibitors of intracellular T. cruzi replication, confirmation, NIH3T3 host cells, beta-gal luminescence (AID 2044); assay type: functional, cell-based;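 note: intracellular parasites grown in NIH/3T3 mouse fibroblasts as host cells; luminescent beta-galactosidase reporter signal from transgenic T. cruzi replicating inside host cells; inhibitors lower the luminescence signal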
cells [3] = assay type: functional, cell-based
cells [4] = assay type: functional, cell-based; remark: listed apart in the source
[5] = Luminescence-based counterscreen assay for KLF5 inhibitors: dose response cell-based high throughput screening assay to identify cytotoxic compounds using the IEC-6 intestinal epithelial cell line. [Related pubchem assays: 1700 (Primary screen.), 1834 (Confirmation screen.), 1858 (Summary AID.), 1905 (Counterscreen.)]; assay type: functional
Paired box protein Pax-8 = Paired box protein Pax-8 (Homo sapiens, UniProt Q06710); test: inhibitors of PAX8-driven TPO luciferase reporter, dose response, RMG-I cells, cherry-pick (AID 687027); assay type: functional, cell-based;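 note: luciferase reporter driven by Pax8 target thyroperoxidase promoter measured by SteadyGlo luminescence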
Chain of Paired box protein Pax-8 (Q06710 whole entry): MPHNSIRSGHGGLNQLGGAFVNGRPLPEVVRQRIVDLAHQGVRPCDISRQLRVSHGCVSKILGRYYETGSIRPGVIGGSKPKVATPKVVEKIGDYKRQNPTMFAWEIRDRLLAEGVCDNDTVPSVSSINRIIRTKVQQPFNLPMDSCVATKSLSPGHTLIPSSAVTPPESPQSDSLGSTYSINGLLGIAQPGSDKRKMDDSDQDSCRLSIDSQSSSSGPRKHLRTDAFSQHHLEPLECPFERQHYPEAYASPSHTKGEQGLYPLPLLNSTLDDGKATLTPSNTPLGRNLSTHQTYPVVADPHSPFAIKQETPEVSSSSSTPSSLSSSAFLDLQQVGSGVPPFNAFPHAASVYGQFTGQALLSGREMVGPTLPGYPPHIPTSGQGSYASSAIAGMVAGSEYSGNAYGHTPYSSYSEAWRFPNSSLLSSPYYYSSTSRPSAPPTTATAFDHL

[6] = NIH-3T3 fibroblast cytotoxicity, dose response, cytotoxicity control, cell-based, fluorescence, Alamar Blue, secondary assay (AID 2327); assay type: functional;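 note: NIH-3T3 mouse fibroblasts cultured with fluconazole at 8 µg/mL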
[7] = cytotoxicity toward NIH3T3 fibroblasts, dose response, counter-screen, cell-based, ATP luminescence, mouse fibroblasts (AID 2010); assay type: functional;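 note: cells exposed to compound for about 90 hours before reading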
[8] = C. albicans growth with fluconazole, confirmation, fluorescence, retest (AID 2467); assay type: functional, cell-based
[9] = Luminescence Cell-Based Dose Response HTS to Identify Activators of Luciferase Translation or Activity in H4 […] Cells. [Related pubchem assays: 1829 (Project Summary), 1814 (Primary HTS)]; assay type: functional
H4 = test: Luminescence Cell-Based Dose Response HTS to Identify Activators of 5'UTR Stem-Loop Driven Prion Protein mRNA Translation in H4 Neuroglioblastoma Cells. [Related pubchem assays: 1829 (Project Summary), 1814 (Primary HTS)]; assay type: functional; conditions: Homo sapiens
[10] = Luminescence Cell-Based Dose Response to Identify Activators of 5'UTR Stem-Loop Driven Prion Protein mRNA Translation in H4-C Neuroglioblastoma Cells. [Related pubchem assays: 1829 (Project Summary), 1814 (Primary HTS)]; assay type: functional
[11] = Luminescence Cell-Based Dose Confirmation to Identify Activators of 5'UTR Stem-Loop Driven Alpha-Synuclein mRNA Translation in H4 Neuroglioblastoma Cells. [Related pubchem assays: 1829 (Project Summary), 1814 (Primary HTS)]; assay type: functional
[12] = Luminescence Cell-Based Dose Response to Identify Activators of Luciferase Translation or Activity in H4-C Neuroglioblastoma Cells. [Related pubchem assays: 1829 (Project Summary), 1814 (Primary HTS)]; assay type: functional
[13] = target: T2, Neuropeptide Y receptor type 2 (Homo sapiens, UniProt P49146); assay type: functional, cell-based;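 note: HEK293 cells expressing the receptor and a CNG channel; stimulus was NPY near EC95 followed by isoproterenol to raise cAMP; antagonist potency measured as restoring cAMP signal that NPY suppresses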
T2 sequence (P49146 whole entry): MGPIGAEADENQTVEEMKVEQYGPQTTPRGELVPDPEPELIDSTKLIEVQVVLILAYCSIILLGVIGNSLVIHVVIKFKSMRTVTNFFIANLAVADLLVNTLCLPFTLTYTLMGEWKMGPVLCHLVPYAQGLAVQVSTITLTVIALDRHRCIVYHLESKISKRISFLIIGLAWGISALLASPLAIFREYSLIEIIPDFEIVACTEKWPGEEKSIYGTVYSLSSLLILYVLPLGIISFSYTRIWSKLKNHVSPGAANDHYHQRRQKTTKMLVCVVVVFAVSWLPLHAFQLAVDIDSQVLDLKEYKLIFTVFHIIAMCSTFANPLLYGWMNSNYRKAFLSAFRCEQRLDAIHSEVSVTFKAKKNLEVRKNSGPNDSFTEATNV

[14] = target: T3, Neuropeptide Y receptor type 1 (Homo sapiens, UniProt P25929); assay type: functional;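 note: HEK293 cells with a CNG channel challenged with NPY then isoproterenol; potency as antagonist that reverses NPY suppression of cAMP signal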
T3 sequence (P25929 whole entry): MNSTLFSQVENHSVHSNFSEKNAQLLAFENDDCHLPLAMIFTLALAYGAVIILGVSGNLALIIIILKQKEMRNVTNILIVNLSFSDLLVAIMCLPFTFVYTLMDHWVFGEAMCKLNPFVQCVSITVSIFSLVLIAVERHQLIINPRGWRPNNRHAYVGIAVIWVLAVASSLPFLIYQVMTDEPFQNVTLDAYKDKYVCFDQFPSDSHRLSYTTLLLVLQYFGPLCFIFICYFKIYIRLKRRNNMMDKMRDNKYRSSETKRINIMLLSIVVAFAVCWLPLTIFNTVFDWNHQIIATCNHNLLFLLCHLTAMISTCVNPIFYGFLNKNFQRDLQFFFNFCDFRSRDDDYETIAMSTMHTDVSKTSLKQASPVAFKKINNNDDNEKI

[15] = A cytotoxicity screen of small molecule inhibitors of the PhoP region in Salmonella typhi identified in the primary screen. [Related pubchem assays: 1850, 1864, 1985 ]; assay type: functional
[16] = target: Induced myeloid leukemia cell differentiation protein Mcl-1 (Homo sapiens, UniProt Q07820); test: MCL1-BIM BH3 interaction inhibitors, dose response, biochemical, fluorescence polarization, BIM-BH3 peptide, 1536-well (AID 2217)
Chain of Induced myeloid leukemia cell differentiation protein Mcl-1 (Q07820 whole entry): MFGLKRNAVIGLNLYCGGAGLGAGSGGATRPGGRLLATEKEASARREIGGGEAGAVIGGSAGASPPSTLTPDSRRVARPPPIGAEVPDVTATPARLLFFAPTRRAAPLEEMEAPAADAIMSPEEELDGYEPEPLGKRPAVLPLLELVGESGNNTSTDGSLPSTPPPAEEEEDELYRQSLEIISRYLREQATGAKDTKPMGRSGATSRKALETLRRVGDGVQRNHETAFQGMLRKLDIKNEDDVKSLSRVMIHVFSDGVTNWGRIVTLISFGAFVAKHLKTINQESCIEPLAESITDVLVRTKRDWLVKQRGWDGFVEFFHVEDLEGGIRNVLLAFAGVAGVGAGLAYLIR

Bcl-2-like protein 1 = Bcl-2-like protein 1 (Homo sapiens, UniProt Q07817); test: BCL-XL inhibitors, dose response, selectivity assay for MCL1 inhibitor project, biochemical, fluorescence polarization, 1536-well (AID 2218)
Chain of Bcl-2-like protein 1 (Q07817 whole entry): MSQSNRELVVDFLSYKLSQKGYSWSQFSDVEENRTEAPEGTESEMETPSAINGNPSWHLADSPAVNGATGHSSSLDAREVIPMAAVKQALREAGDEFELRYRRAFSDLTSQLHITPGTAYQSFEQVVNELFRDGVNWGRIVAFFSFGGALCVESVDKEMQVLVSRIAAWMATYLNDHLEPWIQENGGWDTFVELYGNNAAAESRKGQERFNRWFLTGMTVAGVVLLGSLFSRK

Estrogen receptor beta [17] = target: T4, Estrogen receptor beta (Homo sapiens, UniProt Q92731);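 note: recombinant ER-beta bound to coactivator SRC1 peptide in presence of estradiol agonist; inhibitors block coactivator peptide binding and lower the FRET signal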
T4 sequence (Q92731 whole entry): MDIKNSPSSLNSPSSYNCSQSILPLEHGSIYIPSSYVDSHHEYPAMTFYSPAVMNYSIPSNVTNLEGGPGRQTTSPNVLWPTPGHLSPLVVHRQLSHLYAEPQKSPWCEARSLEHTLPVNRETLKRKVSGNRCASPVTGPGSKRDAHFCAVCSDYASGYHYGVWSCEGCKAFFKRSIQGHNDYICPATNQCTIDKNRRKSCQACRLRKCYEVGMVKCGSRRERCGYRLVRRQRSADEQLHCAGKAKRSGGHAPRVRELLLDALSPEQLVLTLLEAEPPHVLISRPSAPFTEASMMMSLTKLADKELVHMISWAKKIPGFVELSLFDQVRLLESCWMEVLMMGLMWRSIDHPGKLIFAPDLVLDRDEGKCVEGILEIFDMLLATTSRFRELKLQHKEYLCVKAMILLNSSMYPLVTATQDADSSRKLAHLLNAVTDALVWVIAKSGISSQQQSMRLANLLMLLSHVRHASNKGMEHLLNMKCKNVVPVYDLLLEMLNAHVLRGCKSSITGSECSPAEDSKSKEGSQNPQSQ

Estrogen receptor beta [18] = target: T4, Estrogen receptor beta; test: ERβ–SRC-3 coactivator interaction inhibitors, confirmation, orthogonal assay, biochemical, ELISA, streptavidin-HRP readout (AID 1060)
fMet-Leu-Phe receptor = fMet-Leu-Phe receptor (Homo sapiens, UniProt P21462); test: FPR ligands, dose response (AID 519); assay type: functional
Chain of fMet-Leu-Phe receptor (P21462 whole entry, the tested form may be a part): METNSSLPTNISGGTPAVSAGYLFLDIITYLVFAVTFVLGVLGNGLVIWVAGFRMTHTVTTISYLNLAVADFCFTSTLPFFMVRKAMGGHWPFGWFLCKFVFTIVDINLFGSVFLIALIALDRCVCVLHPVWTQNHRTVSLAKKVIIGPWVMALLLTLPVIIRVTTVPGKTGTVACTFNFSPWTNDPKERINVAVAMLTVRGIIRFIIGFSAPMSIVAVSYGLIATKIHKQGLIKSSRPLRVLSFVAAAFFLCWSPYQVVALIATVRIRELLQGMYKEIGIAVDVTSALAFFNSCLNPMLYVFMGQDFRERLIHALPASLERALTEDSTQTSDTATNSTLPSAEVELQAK

[19] = inhibitors of HIV Env-driven cell fusion, dose response, cherry-pick (AID 652057); assay type: functional, cell-based
[20] = ZM109 Env clade C HIV-1 fusion inhibitors, dose response, HeLa effector, CEM target cells, luciferase, cherry-pick (AID 652058); assay type: functional, cell-based
[21] = CEM21 lymphoblast cell cytotoxicity, dose response, cytotoxicity control for viral fusion inhibitor project, CellTiter-Glo luminescence, cherry-picked (AID 652042); assay type: functional, cell-based;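 note: potency for signal decrease meaning cytotoxicity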
[22] = target: Melanin-concentrating hormone receptor 1 (Homo sapiens, UniProt Q99705); test: Fluorescence-based counterscreen for antagonists of the G-protein coupled receptor 7 (GPR7): cell-based high throughput dose response assay to identify antagonists of the melanin-concentrating hormone receptor 1 (MCHR1).; assay type: functional
Chain of Melanin-concentrating hormone receptor 1 (Q99705 whole entry): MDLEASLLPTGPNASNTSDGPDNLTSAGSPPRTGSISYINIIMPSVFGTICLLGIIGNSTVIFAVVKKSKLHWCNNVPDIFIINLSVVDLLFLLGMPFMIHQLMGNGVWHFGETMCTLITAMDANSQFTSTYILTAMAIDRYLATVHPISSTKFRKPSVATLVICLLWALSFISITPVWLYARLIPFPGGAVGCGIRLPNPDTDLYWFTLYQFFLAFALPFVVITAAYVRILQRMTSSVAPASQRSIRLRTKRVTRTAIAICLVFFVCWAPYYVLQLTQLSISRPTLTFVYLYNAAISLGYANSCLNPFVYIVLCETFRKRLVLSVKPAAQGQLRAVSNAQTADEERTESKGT

[23] = target: T5, Neuropeptides B/W receptor type 1 (Homo sapiens, UniProt P48145); test: Fluorescence-based dose response cell-based high throughput screening assay to identify antagonists of the G-protein coupled receptor 7 (GPR7). [Related pubchem assays: 1952 (Screening assay (GPR7 antagonists).), 1880 (Summary AID.)]; assay type: functional
T5 sequence (P48145 whole entry): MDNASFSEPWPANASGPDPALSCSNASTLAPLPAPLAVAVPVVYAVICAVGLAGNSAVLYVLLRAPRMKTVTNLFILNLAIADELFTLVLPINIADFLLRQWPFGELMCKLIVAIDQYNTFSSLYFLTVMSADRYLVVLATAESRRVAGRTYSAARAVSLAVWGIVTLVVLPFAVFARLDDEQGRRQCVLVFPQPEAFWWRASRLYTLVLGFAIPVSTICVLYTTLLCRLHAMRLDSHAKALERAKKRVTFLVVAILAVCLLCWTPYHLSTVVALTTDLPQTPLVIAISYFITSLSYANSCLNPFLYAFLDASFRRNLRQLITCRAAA

[24] = off-target signal loss in HeLa-CEM21 co-culture – HeLa F-luc CTL cells, cherry-picked, counter-screen for HIV-1 Env fusion inhibitor project, dose response (AID 652040); assay type: functional, cell-based;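 note: potency for signal decrease marking cytotoxic or nonspecific inhibition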
[25] = inhibitors of clade B AD8 Env fusion, dose response, cell-based, cherry-pick (AID 652062); assay type: functional;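 note: luciferase signal from cell-cell fusion driven by HIV-1 clade B AD8 Env; potency is for inhibitors of fusion seen as a drop in luminescence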
SUMO-activating enzyme [26] = target: T6, SUMO-activating enzyme (Homo sapiens, UniProt Q9UBT2); test: inhibitors of in vitro SUMOylation cascade, primary screen, biochemical, HTRF, uHTS (AID 2006); assay type: protein-complex assay
T6 sequence (Q9UBE0 whole entry): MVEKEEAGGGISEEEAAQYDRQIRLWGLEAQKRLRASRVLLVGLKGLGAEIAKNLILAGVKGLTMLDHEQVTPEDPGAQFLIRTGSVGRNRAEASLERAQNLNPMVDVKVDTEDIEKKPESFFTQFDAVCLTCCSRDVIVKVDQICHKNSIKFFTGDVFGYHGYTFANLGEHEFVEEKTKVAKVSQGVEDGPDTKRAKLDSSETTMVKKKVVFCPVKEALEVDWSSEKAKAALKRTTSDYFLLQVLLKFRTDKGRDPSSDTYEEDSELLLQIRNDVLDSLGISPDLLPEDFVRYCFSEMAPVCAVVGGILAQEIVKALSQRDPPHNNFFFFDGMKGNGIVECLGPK
T6 sequence (Q9UBT2 whole entry): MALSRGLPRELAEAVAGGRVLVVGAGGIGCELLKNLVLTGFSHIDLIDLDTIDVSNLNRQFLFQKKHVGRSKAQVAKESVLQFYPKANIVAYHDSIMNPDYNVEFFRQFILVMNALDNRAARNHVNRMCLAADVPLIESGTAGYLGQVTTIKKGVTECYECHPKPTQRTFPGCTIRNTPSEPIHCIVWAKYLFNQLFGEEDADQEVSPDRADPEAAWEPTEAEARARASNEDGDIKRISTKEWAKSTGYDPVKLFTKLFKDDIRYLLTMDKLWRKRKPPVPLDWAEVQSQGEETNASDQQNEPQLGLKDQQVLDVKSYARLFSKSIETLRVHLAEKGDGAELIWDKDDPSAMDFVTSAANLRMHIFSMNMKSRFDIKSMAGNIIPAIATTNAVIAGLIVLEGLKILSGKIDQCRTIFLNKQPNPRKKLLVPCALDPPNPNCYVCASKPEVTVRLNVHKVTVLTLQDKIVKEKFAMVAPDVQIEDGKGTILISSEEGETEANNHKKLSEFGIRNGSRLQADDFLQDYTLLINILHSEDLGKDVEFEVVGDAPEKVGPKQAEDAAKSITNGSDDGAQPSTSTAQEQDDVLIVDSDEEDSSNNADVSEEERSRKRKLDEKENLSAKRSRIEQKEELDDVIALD

SUMO-activating enzyme [27] = target: T6, SUMO-activating enzyme; test: SUMOylation inhibitor hit validation, confirmation, SUMOylation inhibitor project, biochemical, AlphaScreen (AID 2018); assay type: functional

With `COc1ccccc1N1CCN(Cc2cc(Br)c(O)c3ncccc23)CC1` as the molecule, how does the EC50 [1] read?
The EC50 was 0.482 µM (active).

What about the AC50 (INS1) of the same molecule?
Its AC50 is 3.95 µM (active).

What about the IC50 (Nonstructural protein 1) of the same molecule?
The IC50 was 15.4 µM (active).

What about the EC50 [2] of the same molecule?
The EC50 was 1.34 µM (active).

And the EC50 (cells [3])?
The EC50 was > 350 µM (not active).

What about the EC50 (cells [4]) of the same molecule?
The EC50 was 8.13 µM (active).

And the IC50 [5]?
Its IC50 is 6.32 µM (active).

And the AC50 (Paired box protein Pax-8)?
Its AC50 is 1.82 µM (active).

What about the EC50 [6] of the same molecule?
Its EC50 is 19.4 µM (inconclusive).

And the EC50 [7]?
The EC50 was 6.15 µM (active).

And the EC50 [8]?
Its EC50 is 2.22 µM (active).

With `COc1cccc(-c2nc(O)c3c4c(sc3n2)CCCCC4)c1` as the molecule, how does the EC50 [9] read?
Its EC50 is < 0.1 µM (active).

What about the EC50 (H4) of the same molecule?
The EC50 was 11.6 µM (active).

And the EC50 [10]?
The EC50 was 0.37 µM (active).

What about the EC50 [11] of the same molecule?
Its EC50 is 0.303 µM (active).

What about the EC50 [12] of the same molecule?
The EC50 was 1.36 µM (active).

For `N#Cc1ccc(-c2cccnc2)nc1SCc1ccc(Cl)c(Cl)c1`, which IC50 [13] is on record?
Its IC50 is 5.19 µM (active).

And the IC50 [14]?
The IC50 was 5.69 µM (active).

For `CCNC(=O)c1ccc(C2SCC(=O)N2CCc2ccccc2)cc1` (centres undefined), which EC50 [15] is on record?
The EC50 was > 50 µM (active).

With `O=C(CNc1cccc2ccccc12)N/N=C/c1ccc(C(=O)O)cc1` as the molecule, how does the IC50 [16] read?
The IC50 was 26.6 µM (not active).

What about the IC50 (Bcl-2-like protein 1) of the same molecule?
Its IC50 is > 109 µM (not active).

Which IC50 [13] does the source give for `Clc1ccc(OCCSc2nnnn2C2CCCCC2)cc1` here?
The IC50 was 14.2 µM (not active).

What about the IC50 [14] of the same molecule?
The IC50 was 9.04 µM (active).

For `Cc1cc2cc(CNC(=O)C(C)Oc3ccccc3)ccc2n1C` (centres undefined), which EC50 [15] is on record?
The EC50 was > 50 µM (active).

With `CCOC(=O)C1=C(C)NC(=O)NC1c1ccco1` (centres undefined) as the molecule, how does the IC50 (Estrogen receptor beta [17]) read?
Its IC50 is 9.28 µM (active).

What about the IC50 (Estrogen receptor beta [18]) of the same molecule?
The IC50 was < 0.023 µM (not active).

With `Clc1ccc(C2CC(c3cccs3)n3ncnc3N2)cc1Cl` (centres undefined) as the molecule, how does the Ki (fMet-Leu-Phe receptor) read?
Its Ki is > 66.7 µM (inactive).

What about the AC50 [19] of the same molecule?
The AC50 was 7.3 µM (active).

What about the AC50 [20] of the same molecule?
Its AC50 is 7.81 µM (active).

What about the AC50 [21] of the same molecule?
The AC50 was 56.8 µM (active).

And the IC50 [22]?
The IC50 was 16 µM (not active).

What about the IC50 [23] of the same molecule?
The IC50 was > 4.87 µM (active).

What about the AC50 [24] of the same molecule?
The AC50 was 7.08 µM (active).

And the AC50 [25]?
The AC50 was 6.95 µM (active).

What does the source list for `Cc1ccc(-c2c(C)s/c(=N\C(=O)c3ccco3)n2C)cc1`?
EC50 [9]: < 0.1 µM (active); EC50 [10]: 0.469 µM (active); EC50 [11]: > 12 µM (not active); EC50 [12]: 0.354 µM (active)

With `Cc1ccc(NC(Cc2cc(C)no2)c2ccccc2)cc1` (centres undefined) as the molecule, how does the IC50 [22] read?
The IC50 was 19.8 µM (not active).

And the IC50 [23]?
Its IC50 is 9.47 µM (active).

What does the source list for `O=C1NC(=O)N(Cc2ccco2)C(=O)/C1=C/c1ccc(-c2cccc([N+](=O)[O-])c2)o1`?
IC50 [16]: 9.6 µM (active); IC50 (SUMO-activating enzyme [26]): 22.4 µM (active); IC50 (Bcl-2-like protein 1): 17.6 µM (not active); IC50 (SUMO-activating enzyme [27]): 6.08 µM (active)
